Reference: ChEMBL document CHEMBL1201862, “PubChem BioAssay data set” (2004)
Calls of active or inactive are those of the source.

Key:
[1] = HeLa cell cytotoxicity, dose response, cytotoxicity control, ATP luminescence, dry powder (AID 652117); format: functional, cell-based
[2] = target: T1, Protein disulfide-isomerase (Homo sapiens, UniProt P07237); test: PDI inhibitors, insulin turbidity readout, confirmation, biochemical, dry powder samples, set 2 (AID 652146)
Vero = test: West Nile virus antiviral activity, cell-based, CPE readout (AID 1621); format: functional; settings: Chlorocebus sabaeus
[3] = target: T1, Protein disulfide-isomerase; test: PDI inhibitors, insulin aggregation turbidity, dose response, biochemical, absorbance, cherry-picked samples (AID 602350); format: functional
Prothrombin = Prothrombin (Bos taurus, UniProt P00735); test: thrombin inhibition, dose response, biochemical, fluorescence polarization, uHTS hits (AID 602369); format: functional
[4] = target: 72 kDa type IV collagenase (Homo sapiens, UniProt P08253); test: Dose Response validation of uHTS RPN11 inhibitor hits using a MMP-2 Fluorescence assay.; format: functional
[5] = target: T2, Ubiquitin-conjugating enzyme E2 N (Homo sapiens, UniProt P61088); format: functional;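 note: Dose-response confirmation in a TR-FRET assay detecting UBC13-driven polyubiquitin chain formation, inhibition measured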
T2 sequence (P61088 whole entry): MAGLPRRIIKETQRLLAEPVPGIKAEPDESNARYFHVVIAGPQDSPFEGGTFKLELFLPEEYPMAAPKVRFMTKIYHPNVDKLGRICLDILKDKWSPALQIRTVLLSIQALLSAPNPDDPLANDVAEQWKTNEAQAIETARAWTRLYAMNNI

[6] = target: 26S proteasome non-ATPase regulatory subunit 14 (Homo sapiens, UniProt O00487); test: inhibition of proteasome subunit RPN11 – biochemical, fluorescence polarization, uHTS hits, confirmation (AID 602368); format: functional
[7] = cytotoxicity in HEK-293T cells, dose response, cytotoxicity control for BCR NF-kB inhibitor project, luminescence, B-cell screen hits (AID 489021); format: functional, cell-based;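 note: HEK-293T cells carrying an NF-kB luciferase reporter; cells exposed to compound for about 14 hours before viability readout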
[8] = inhibitors of intracellular T. cruzi replication, confirmation, NIH3T3 host cells, beta-gal luminescence (AID 2044); format: functional, cell-based;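 note: intracellular parasites grown in NIH/3T3 mouse fibroblasts as host cells; luminescent beta-galactosidase reporter signal from transgenic T. cruzi replicating inside host cells; inhibitors lower the luminescence signal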
[9] = target: T3, High affinity choline transporter 1 (Homo sapiens, UniProt Q9GZV3); test: CHT activators, dose response, cell-based, 10-point CRC, membrane potential dye (AID 602376); format: functional
T3 sequence (Q9GZV3 whole entry): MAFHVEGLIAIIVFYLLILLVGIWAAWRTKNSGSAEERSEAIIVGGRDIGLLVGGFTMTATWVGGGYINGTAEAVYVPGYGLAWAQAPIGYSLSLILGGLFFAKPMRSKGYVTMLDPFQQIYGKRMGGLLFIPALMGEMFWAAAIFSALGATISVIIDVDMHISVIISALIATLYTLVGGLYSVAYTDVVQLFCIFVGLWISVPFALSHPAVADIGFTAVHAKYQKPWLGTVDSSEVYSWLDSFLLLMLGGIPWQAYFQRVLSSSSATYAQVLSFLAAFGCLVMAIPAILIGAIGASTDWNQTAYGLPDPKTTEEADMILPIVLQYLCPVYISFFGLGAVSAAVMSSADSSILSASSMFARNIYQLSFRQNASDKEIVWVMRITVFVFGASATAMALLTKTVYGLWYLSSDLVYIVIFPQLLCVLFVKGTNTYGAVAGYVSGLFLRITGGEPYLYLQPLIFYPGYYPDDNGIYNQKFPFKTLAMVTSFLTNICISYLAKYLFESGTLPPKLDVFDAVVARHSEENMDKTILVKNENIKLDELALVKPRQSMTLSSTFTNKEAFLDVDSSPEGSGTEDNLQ

[10] = cytotoxicity toward NIH3T3 fibroblasts, dose response, counter-screen, cell-based, ATP luminescence, mouse fibroblasts (AID 2010); format: functional;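 note: cells exposed to compound for about 90 hours before reading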
INS1 [11] = test: beta cell apoptosis inhibitors, cytokine rescue, dose response, luminescence, retest (AID 449756); format: functional, cell-based; settings: Rattus norvegicus;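 note: cell death triggered by IL-1 beta plus TNF-alpha plus IFN-gamma mixture; protective hits raise ATP signal compared with cytokine alone wells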
INS1 [12] = test: protection of INS-1E cells from cytokine death, dose response, ATP luminescence, dry powder (AID 488844); format: functional, cell-based; settings: Rattus norvegicus
INS1 [13] = test: inhibitors of cytokine-induced nitrite release, dose response, cell-based, Griess absorbance, INS-1E, dry powder, set 2 (AID 488868); format: functional; settings: Rattus norvegicus
[14] = inhibitors of cytokine-induced nitrite release, dose response, cell-based, Griess absorbance, INS-1E, dry powder, set 3 (AID 488870); format: functional; settings: Rattus norvegicus
[15] = target: Benomyl/methotrexate resistance protein (Candida albicans, UniProt P28873); test: CaMdr1 efflux pump inhibitor potency, dose response, singleplex, Cherry Pick1 hits (AID 588608); format: functional
[16] = target: Multidrug resistance protein CDR1 (Candida albicans, UniProt P43071); test: CaCDR1 efflux pump inhibitors in yeast, dose response, S. cerevisiae AD1-8u, singleplex, Cherry Pick1 hits (AID 588606); format: functional
[17] = target: Melanin-concentrating hormone receptor 1 (Homo sapiens, UniProt Q99705); test: Late-stage fluorescence-based counterscreen for antagonists of the G-protein coupled receptor 7 (GPR7): cell-based dose response assay to identify antagonists of the melanin-concentrating hormone receptor 1 (MCHR1) Set 5.; format: functional
[18] = target: Neuropeptides B/W receptor type 1 (Homo sapiens, UniProt P48145); test: GPR7 antagonist potency, late-stage follow-up, cell-based, fluorescence, dose response, set 5 (AID 588566); format: functional
[19] = target: Vascular endothelial growth factor receptor 2 (Homo sapiens, UniProt P35968); format: functional
[20] = target: Proto-oncogene tyrosine-protein kinase Src (Homo sapiens, UniProt P12931); format: functional;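 note: SRC entry within a kinome-wide kinase profiling panel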
[21] = target: Tyrosine-protein kinase Lyn (Homo sapiens, UniProt P07948); format: functional;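 note: lyn as one member of a kinase panel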
[22] = target: Tyrosine-protein kinase Lck (Homo sapiens, UniProt P06239); format: functional;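 note: lck was assayed as one member of a kinase panel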
[23] = target: Tyrosine-protein kinase Fyn (Homo sapiens, UniProt P06241); format: functional
[24] = target: Vascular endothelial growth factor receptor 3 (Homo sapiens, UniProt P35916); format: functional;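 note: value from a kinome-wide profiling panel, with FLT4 as the panel member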
[25] = target: Mast/stem cell growth factor receptor Kit (Homo sapiens, UniProt P10721); format: functional;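 note: KIT entry within a kinase panel assay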
[26] = target: T4, Receptor-type tyrosine-protein kinase FLT3 (Homo sapiens, UniProt P36888); format: functional;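 note: FLT3 was tested as one member of a kinome-wide kinase panel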
T4 sequence (P36888 whole entry): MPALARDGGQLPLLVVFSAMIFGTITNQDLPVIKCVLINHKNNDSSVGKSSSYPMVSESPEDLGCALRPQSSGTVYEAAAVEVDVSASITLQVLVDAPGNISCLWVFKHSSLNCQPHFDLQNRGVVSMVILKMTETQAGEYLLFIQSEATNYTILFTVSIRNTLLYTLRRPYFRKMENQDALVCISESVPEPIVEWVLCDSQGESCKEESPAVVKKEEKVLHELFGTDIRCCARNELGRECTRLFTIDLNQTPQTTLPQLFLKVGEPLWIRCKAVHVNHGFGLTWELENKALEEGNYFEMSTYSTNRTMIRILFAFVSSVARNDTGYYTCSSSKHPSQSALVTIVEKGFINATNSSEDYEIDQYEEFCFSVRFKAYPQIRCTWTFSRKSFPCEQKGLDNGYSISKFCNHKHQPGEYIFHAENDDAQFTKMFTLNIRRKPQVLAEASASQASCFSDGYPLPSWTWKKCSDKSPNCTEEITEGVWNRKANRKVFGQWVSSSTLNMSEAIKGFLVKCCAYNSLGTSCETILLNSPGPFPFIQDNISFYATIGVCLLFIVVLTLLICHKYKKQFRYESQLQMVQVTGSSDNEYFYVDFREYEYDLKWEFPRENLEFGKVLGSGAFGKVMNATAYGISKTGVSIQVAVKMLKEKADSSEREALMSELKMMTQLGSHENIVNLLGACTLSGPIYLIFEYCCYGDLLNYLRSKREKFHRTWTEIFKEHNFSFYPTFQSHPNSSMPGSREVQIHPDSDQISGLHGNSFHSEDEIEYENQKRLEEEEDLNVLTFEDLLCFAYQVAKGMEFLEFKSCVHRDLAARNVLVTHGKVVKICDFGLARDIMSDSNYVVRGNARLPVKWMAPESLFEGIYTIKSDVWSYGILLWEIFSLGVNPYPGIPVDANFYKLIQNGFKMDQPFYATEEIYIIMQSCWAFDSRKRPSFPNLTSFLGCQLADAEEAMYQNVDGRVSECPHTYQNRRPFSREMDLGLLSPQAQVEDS

[27] = target: Vascular endothelial growth factor receptor 1 (Homo sapiens, UniProt P17948); format: functional;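 note: measured within a kinome-wide profiling panel, FLT1 as the panel member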
[28] = target: Tyrosine-protein kinase Blk (Homo sapiens, UniProt P51451); format: functional;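 note: obtained as one member of a kinome-wide kinase assay panel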
[29] = target: Macrophage colony-stimulating factor 1 receptor (Homo sapiens, UniProt P07333); format: functional;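 note: value comes from the Navigating the Kinome screening panel, CSF1R member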
[30] = target: Tyrosine-protein kinase ABL1 (Homo sapiens, UniProt P00519); format: functional

T1 sequence (P07237 whole entry): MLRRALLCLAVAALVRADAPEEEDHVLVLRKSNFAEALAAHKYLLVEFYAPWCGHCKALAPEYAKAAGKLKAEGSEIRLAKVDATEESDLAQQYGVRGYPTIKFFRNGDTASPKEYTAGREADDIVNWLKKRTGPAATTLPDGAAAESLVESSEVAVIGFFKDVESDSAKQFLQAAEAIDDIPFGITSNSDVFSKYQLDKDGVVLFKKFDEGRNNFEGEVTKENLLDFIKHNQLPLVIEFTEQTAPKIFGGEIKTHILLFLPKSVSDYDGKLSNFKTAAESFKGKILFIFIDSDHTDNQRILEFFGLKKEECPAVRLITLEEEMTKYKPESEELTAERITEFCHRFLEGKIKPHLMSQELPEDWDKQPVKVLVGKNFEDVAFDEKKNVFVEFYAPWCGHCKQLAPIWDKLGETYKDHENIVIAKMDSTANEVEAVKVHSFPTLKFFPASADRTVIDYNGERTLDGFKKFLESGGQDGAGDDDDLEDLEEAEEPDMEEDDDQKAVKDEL
Sequence of Vascular endothelial growth factor receptor 3 (P35916 whole entry): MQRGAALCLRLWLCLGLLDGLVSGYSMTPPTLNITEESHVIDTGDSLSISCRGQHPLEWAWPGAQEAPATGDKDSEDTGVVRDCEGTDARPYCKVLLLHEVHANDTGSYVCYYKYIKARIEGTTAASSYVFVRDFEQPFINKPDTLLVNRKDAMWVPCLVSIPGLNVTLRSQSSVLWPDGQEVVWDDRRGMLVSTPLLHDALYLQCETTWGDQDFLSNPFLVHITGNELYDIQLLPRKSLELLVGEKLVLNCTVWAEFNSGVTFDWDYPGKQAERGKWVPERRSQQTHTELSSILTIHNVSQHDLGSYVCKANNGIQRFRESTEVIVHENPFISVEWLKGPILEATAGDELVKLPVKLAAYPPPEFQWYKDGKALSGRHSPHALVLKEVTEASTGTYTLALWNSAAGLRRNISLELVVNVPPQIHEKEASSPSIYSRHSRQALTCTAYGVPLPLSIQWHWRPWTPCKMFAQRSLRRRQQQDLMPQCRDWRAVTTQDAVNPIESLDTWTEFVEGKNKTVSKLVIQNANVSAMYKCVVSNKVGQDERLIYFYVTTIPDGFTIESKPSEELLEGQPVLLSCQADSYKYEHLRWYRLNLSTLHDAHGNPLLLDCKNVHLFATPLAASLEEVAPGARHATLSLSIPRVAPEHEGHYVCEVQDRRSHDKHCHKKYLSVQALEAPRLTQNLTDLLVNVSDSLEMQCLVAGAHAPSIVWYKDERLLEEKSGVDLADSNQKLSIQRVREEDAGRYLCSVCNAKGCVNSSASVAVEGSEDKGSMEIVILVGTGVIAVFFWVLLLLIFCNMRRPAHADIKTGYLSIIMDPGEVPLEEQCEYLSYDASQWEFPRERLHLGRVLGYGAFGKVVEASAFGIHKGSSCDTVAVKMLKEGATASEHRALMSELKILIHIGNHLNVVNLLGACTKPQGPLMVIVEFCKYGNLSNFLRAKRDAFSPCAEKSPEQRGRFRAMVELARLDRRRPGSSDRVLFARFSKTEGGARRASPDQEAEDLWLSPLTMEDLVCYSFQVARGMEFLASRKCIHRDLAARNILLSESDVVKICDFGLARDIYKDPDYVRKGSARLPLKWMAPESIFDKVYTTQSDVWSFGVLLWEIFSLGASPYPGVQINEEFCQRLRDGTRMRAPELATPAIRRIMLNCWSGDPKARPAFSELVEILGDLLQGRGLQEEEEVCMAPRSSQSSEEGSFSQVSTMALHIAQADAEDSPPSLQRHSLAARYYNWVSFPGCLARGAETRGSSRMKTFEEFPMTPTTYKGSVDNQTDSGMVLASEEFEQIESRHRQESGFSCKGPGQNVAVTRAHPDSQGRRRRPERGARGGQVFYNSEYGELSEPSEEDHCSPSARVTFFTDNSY
Sequence of Proto-oncogene tyrosine-protein kinase Src (P12931 2-536 limits assumed): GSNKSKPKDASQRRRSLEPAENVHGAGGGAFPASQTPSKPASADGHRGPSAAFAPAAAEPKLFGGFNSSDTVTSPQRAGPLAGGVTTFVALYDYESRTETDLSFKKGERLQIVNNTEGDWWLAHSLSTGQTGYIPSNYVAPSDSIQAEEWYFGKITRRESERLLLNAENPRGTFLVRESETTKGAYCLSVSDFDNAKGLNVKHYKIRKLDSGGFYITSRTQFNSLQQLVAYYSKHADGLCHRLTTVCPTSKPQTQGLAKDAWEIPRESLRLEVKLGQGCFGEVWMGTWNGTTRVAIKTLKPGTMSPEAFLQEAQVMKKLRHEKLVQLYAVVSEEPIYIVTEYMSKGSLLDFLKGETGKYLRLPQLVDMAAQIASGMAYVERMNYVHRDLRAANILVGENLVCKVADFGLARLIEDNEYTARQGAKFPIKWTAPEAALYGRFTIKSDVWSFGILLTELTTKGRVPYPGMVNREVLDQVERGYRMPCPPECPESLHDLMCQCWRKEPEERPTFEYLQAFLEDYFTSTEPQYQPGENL
Sequence of Tyrosine-protein kinase Lyn (P07948 whole entry): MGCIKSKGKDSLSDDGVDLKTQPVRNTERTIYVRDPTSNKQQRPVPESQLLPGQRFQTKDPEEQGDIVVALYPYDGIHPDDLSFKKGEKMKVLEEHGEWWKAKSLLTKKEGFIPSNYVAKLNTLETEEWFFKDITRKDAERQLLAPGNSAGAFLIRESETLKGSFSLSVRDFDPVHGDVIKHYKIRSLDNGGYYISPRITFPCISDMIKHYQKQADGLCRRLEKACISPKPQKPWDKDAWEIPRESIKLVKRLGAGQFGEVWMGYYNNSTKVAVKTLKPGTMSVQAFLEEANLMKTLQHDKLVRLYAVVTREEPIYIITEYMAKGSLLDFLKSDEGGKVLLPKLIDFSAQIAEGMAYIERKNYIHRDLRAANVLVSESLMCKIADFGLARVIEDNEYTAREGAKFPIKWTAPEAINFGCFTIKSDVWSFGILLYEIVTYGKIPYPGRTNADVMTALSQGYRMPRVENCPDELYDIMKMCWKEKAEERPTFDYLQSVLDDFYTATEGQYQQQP
Sequence of 26S proteasome non-ATPase regulatory subunit 14 (O00487 whole entry): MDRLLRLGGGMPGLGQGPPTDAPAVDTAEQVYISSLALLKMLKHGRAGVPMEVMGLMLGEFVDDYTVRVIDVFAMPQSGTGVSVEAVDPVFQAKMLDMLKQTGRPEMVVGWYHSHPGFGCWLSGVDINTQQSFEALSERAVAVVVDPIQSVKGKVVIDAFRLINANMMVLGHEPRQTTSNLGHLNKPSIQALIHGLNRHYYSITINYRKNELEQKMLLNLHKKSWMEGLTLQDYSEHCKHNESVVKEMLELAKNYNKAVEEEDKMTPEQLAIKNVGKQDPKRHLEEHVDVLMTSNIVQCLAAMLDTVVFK
Sequence of Tyrosine-protein kinase Blk (P51451 whole entry): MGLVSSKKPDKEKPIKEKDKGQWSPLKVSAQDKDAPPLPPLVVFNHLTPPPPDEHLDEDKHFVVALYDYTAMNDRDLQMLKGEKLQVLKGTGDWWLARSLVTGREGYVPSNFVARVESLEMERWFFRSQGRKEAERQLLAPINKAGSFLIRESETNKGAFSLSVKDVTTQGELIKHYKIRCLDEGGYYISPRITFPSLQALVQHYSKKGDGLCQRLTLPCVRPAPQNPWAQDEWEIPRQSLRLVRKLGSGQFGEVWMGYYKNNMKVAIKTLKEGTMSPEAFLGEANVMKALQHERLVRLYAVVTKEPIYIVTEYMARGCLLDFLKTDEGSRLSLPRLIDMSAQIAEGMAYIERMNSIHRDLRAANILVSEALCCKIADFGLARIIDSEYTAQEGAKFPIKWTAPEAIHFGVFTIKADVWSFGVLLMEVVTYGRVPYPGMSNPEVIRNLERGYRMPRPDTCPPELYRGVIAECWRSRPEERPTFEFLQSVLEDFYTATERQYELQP
Sequence of 72 kDa type IV collagenase (P08253 whole entry): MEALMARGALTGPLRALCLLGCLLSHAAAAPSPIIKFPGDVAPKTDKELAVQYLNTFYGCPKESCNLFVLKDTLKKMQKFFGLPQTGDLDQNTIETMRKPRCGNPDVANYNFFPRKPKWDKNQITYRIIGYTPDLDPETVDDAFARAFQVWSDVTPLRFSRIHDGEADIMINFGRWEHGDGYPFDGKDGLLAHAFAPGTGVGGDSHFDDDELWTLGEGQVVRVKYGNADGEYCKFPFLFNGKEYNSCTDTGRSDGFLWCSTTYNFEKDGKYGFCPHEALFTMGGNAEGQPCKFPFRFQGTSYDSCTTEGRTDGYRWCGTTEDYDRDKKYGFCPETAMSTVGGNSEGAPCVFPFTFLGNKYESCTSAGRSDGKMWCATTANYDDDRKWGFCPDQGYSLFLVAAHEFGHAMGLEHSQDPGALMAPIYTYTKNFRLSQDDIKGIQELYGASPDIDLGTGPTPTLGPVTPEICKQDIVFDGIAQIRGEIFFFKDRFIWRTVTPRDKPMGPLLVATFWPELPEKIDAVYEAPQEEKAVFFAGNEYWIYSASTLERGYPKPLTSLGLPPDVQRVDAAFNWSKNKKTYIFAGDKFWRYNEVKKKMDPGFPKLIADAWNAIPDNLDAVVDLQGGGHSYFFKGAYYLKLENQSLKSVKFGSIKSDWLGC
Sequence of Tyrosine-protein kinase Lck (P06239 whole entry): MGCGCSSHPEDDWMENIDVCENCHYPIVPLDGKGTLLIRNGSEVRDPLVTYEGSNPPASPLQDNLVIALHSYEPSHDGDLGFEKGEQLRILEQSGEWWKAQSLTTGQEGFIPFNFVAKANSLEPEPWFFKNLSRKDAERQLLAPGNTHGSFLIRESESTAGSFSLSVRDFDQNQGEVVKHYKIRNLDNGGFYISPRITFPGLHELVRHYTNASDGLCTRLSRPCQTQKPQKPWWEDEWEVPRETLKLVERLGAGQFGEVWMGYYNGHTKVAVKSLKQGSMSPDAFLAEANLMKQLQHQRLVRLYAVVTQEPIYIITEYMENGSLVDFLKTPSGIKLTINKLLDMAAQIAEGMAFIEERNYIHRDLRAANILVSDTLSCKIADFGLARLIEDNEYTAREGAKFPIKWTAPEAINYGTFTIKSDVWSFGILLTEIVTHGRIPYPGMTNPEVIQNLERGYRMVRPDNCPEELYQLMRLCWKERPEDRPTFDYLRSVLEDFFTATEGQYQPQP

CCOC(=O)c1c(CN2CCN(CCO)CC2)n(-c2ccccc2)c2cc(Br)c(O)cc12
inactive: AC50 [1] > 52 µM
active: AC50 [2] 2 µM | IC50 (Vero) 20.2 µM | AC50 [3] 0.61 µM

CC(=O)n1cc([C@H]2C=C(C(=O)Nc3ccccc3)O[C@@H](OCc3ccc(CO)cc3)C2)c2ccccc21
active: IC50 (Prothrombin) 80.6 µM | IC50 [6] 65.6 µM
inactive: IC50 [4] > 100 µM | IC50 [5] > 20 µM

CCOc1ccc(-c2cn3c([n+]2-c2ccccc2)CCCCC3)cc1
active: EC50 [8] 0.463 µM | EC50 [9] 6.83 µM | EC50 [10] 15.1 µM | AC50 (INS1 [11]) 0.998 µM
inactive: IC50 [7] > 80 µM

C[C@@H]1CN([C@H](C)CO)C(=O)c2cccc(NC(=O)Nc3cccc4ccccc34)c2O[C@H]1CN(C)S(=O)(=O)c1ccc(Cl)cc1
active: AC50 (INS1 [12]) 187 µM | AC50 (INS1 [13]) 48.5 µM | AC50 [14] 112 µM

CC(C)C(=O)N1CCC2(CC1)Oc1ccc(F)cc1C(=O)C21CC(c2ccc(Cl)cc2)=NO1 (configuration not stated)
active: EC50 [15] 31.7 µM | EC50 [16] 12.6 µM

COc1ccc(Oc2c(F)cnn(-c3cccc(C)c3)c2=O)cc1
active: IC50 [17] 7.64 µM | IC50 [18] 4.04 µM

COc1ccc(-c2ccc(NC(=O)Nc3ccc(OC(F)(F)F)cc3)cc2)c2c(N)noc12
active: Ki [19] 0.001 µM | Ki [20] 0.126 µM | Ki [21] 0.0631 µM | Ki [22] 0.0316 µM | Ki [23] 0.0794 µM | Ki [24] 0.0126 µM | Ki [25] 0.00158 µM | Ki [26] 0.00126 µM | Ki [27] 0.000631 µM | Ki [28] 0.0158 µM | Ki [29] 0.00501 µM | Ki [30] 0.2 µM
